The text below walks through data of PubChem BioAssay AID743395 (Broad Institute, 2014).

For the experiment, the system named is HepG2 viability, CellTiter-Glo ATP luminescence, 72 h. As to the kind of experiment: viability loss in human hepatoma cells – cell-based, CellTiter-Glo luminescence, cherry-pick, set 2, cytotoxicity control, dose response (AID 743395).

In the case of `Cc1cccc(N2CCN(C(=O)c3c(-c4ccccc4)noc3C)CC2)c1C`, the AC35 is 4.42 µM.

`O[Si](CCCN1CCCCC1)(c1ccc(F)cc1)C1CCCCC1` (configuration not stated): the AC35 is 10.3 µM.

With `C=C1C(=O)O[C@@H]2C[C@@H](C)[C@@H]3C=CC(=O)[C@@]3(C)[C@@H](O)[C@H]12`, the AC35 is 2.99 µM.

For `COc1ccc([N+](=O)[O-])cc1Nc1c2ccccc2nc2ccccc12`, the AC35 is 18.4 µM.

Regarding `CC(=O)N1CCc2c(sc(NC(=O)c3ccc4c(c3)OCCO4)c2C#N)C1`, the AC35 was 19.4 µM.

On to `O=C1c2ccccc2C(=O)c2c1cccc2N(CCO)CCO`, for which the AC35 is 16.7 µM.

On to `O=c1c2ccccc2sc2c(CO)ccc(NCCN3CCCCC3)c12`, for which the AC35 is 4.82 µM.

`COc1c(O)cc2c(c1OC)-c1ccc(OC)c(=O)cc1C(NC(C)=O)CC2` (configuration not stated): the AC35 was 0.453 µM.

On to `O=C(O)c1ccccc1-c1c2cc(I)c(=O)c(I)c-2oc2c(I)c(O)c(I)cc12`, for which the AC35 is 8.34 µM.

In the case of `COc1ccc(OC)c2[nH]c(C(=O)N/N=C/c3ccccc3O)cc12`, the AC35 was 3.77 µM.

For `COc1cccc(Nc2nc(-c3sc(NC(=O)c4ccccc4)nc3C)cs2)c1`, the AC35 was 6.58 µM.

For the molecule `Cc1noc(C)c1COc1ccc(C(=O)NNC(=O)c2ccccc2)cc1`, the AC35 is 12.2 µM.

For `COc1ccc([C@H]2C[C@H](O)[C@@H](n3cc(-c4ccc(F)cc4)nn3)CN2Cc2cccs2)cc1`, the AC35 was 6.12 µM.

Regarding `COc1ccccc1NC1=C(NC(C)=O)C(=O)c2ccccc2C1=O`, the AC35 was 12.2 µM.

`CCOc1cc(/C=N/NC(=O)N/N=C/c2ccc(O)c(OCC)c2)ccc1O`: the AC35 was 20 µM.

`COc1ccccc1N=C1SC(C(=O)Nc2cccc(Cl)c2Cl)C(N)=C1C(N)=O` (configuration not stated): the AC35 was 18.4 µM.

For the molecule `Nc1nc(Cl)nc2c1ncn2C1CC(O)C(CO)O1` (configuration not stated), the AC35 is 4.65 µM.

With `CC(C)(C)c1ccc(OCC(=O)Nc2ccc3c4c(cccc24)C(=O)NC3=O)cc1`, the AC35 was 18.5 µM.

As for `CCOC(=O)[C@]12CCCC=C1N(Cc1cccc3ccccc13)C(=O)[C@H](CC(=O)NCc1cccc(C(F)(F)F)c1)C2`, the AC35 was 9.99 µM.

For `O=C(Cc1ccccc1)N1CC(=O)N2[C@H](C1)[C@@H](c1ccc(C#Cc3ccccc3)cc1)[C@@H]2CO`, the AC35 was 20.3 µM.

As for `Cc1cc(Br)cc(/C=N/NC(=O)c2ccc3c(c2)OCO3)c1O`, the AC35 was 8 µM.

Take `CCC(=O)NC(c1ccc(C)cc1)c1ccc2cccnc2c1O` (configuration not stated): the AC35 was 1.42 µM.

As for `COc1cc(C(=O)N/N=C(\c2ccccc2)c2ccccn2)cc(OC)c1OC`, the AC35 is 1.46 µM.

On to `CCN(Cc1ccccc1)c1ccc(/C=N/N=C(N)N)cc1`, for which the AC35 was 6.82 µM.

Regarding `CC1(Cc2ccc(F)cc2)C(=O)Nc2c(Cl)ccc(Cl)c21` (configuration not stated), the AC35 is 12 µM.

In the case of `CN(C)CCNc1ccc2ncn3c4ccc(O)cc4c(=O)c1c23`, the AC35 was 2.3 µM.

On to `O=C1c2cccc(NCCCNCCO)c2C(=O)c2cccc(NCCCNCCO)c21`, for which the AC35 is 3.61 µM.

For the molecule `O=C(N/N=C\c1c(O)ccc2ccccc12)c1cncc(Br)c1`, the AC35 is 1.18 µM.

Consider `O=C(CN1CCCC1)N/N=C/c1c(O)ccc2ccccc12`, for which the AC35 is 12.6 µM.

Regarding `CC(=O)Nc1ccc(Nc2c3ccccc3nc3ccccc23)cc1`, the AC35 was 5.33 µM.

On to `NCC(=O)NNC(=O)OCC1c2ccccc2-c2ccccc21`, for which the AC35 was 12.7 µM.

In the case of `Cc1cccc(N2CCN(S(=O)(=O)c3cc(-c4cc(C)no4)ccc3C)CC2C)c1` (configuration not stated), the AC35 was 17.4 µM.

In the case of `CCOC(=O)c1ccc(Nc2sc(C(=O)c3cccc([N+](=O)[O-])c3)c(N)c2C#N)cc1`, the AC35 is 6.7 µM.

In the case of `CC(=O)Oc1c(C)cc(Cl)cc1C(=O)Nc1ccc([N+](=O)[O-])cc1Cl`, the AC35 is 0.712 µM.

For `O=C(Nc1cccc(C2=NCCN2)c1)Nc1cccc(C2=NCCN2)c1`, the AC35 was 5.69 µM.

Turning to `O=[N+]([O-])c1ccc(Sc2cccc[n+]2[O-])c2nonc12`, the AC35 was 5.72 µM.

As for `CN(Cc1ccccc1)S(=O)(=O)c1ccc(NC(=S)NC(=O)C2CCCC2)cc1`, the AC35 was 9.62 µM.

For the molecule `COc1ccc2c(c1)sc(N)[n+]2Cc1cc(C)cc2cccnc12`, the AC35 is 12.4 µM.

As to `C[C@@H]1CN([C@@H](C)CO)C(=O)Cc2cc(N(C)C)ccc2O[C@@H]1CN(C)Cc1ccc(C(=O)Nc2ccccc2N)cc1`, the AC35 is 11.5 µM.

Turning to `COc1ccc(C2=NOC(C(=O)NCc3ccc(F)cc3)C2)cc1OC` (configuration not stated), the AC35 was 7.73 µM.

As to `COc1cccc2c1C(=O)c1c(O)c3c(c(O)c1C2=O)CC(O)(C(C)=O)CC3OC1CC(N(C)C)C(O)C(C)O1` (configuration not stated), the AC35 is 0.0849 µM.

As for `O=C1NC(=O)C(=Cc2c(Cl)cccc2Cl)C(=O)N1`, the AC35 was 22.2 µM.

For `CC1OC(OC2CC(O)C3(CO)C4C(O)CC5(C)C(C6=CC(=O)OC6)CCC5(O)C4CCC3(O)C2)C(O)C(O)C1O` (configuration not stated), the AC35 is 0.201 µM.

Regarding `COC(=O)C1=CN(c2ccc(OC)cc2OC)C(N)=C(C#N)C1c1ccccc1F` (configuration not stated), the AC35 is 6.17 µM.

Consider `NC(=O)N=Nc1c2[nH]c3ccccc3nc-2c2ccccc12`, for which the AC35 was 16.6 µM.

As for `CC(=NNC(=S)Nc1ccc(C)cc1)c1ccccn1`, the AC35 was 0.123 µM.

As to `O=C(N/N=C/c1cccs1)c1cc(C2CC2)nc2ccccc12`, the AC35 was 21.1 µM.

Consider `Cc1cc(NCc2ccccn2)n2nc(C)c(-c3ccccc3)c2n1`, for which the AC35 is 10 µM.

For the molecule `CCCCn1c(CN2CCN(c3cccc(Cl)c3)CC2)nc2c1c(=O)[nH]c(=O)n2C`, the AC35 is 12.3 µM.

Regarding `CC(C)CC#Cc1ccc([C@@H]2[C@@H](CO)N3CCCCN(C(=O)NC4CCCC4)C[C@H]23)cc1`, the AC35 is 9.9 µM.

In the case of `CCN(CC)CCn1c2ccccc2c2nc3ccccc3nc21`, the AC35 is 19.9 µM.

As for `C[C@H]1CCC/C=C/[C@@H]2C[C@H](O)C[C@H]2[C@H](O)/C=C/C(=O)O1`, the AC35 is 0.115 µM.

For the molecule `O=C(Cc1ccc(Br)cc1)NCc1ccccc1`, the AC35 was 5.52 µM.

On to `COc1ccc(S(=O)(=O)Nc2cccc3ccc(O)cc23)cc1`, for which the AC35 was 13.8 µM.

As to `O=c1ccc2[n+]([O-])c3ccc(O)cc3oc-2c1`, the AC35 was 13.2 µM.

As for `COc1cc(OC)c(-c2c3cc(O)c(=O)cc-3oc3cc(O)c(O)cc23)cc1OC`, the AC35 was 13.2 µM.

For `COc1ccccc1C#Cc1ccc2c(c1)O[C@@H](CN(C)Cc1cccnc1)[C@H](C)CN([C@H](C)CO)S2(=O)=O`, the AC35 was 22.4 µM.

Take `O=C(Nc1ccc(Br)cn1)c1cccc2ccccc12`: the AC35 is 5.99 µM.

Turning to `c1ccc2c(NCCCN3CCOCC3)c3ccccc3nc2c1`, the AC35 was 2.78 µM.

As for `CC1(C(=O)NCc2ccccc2)Cc2c(-c3ccc(C(N)=O)cc3)ccnc2O1` (configuration not stated), the AC35 was 13.8 µM.

As for `CCCC(=O)NC(c1ccc(C(C)C)cc1)c1ccc2cccnc2c1O` (configuration not stated), the AC35 is 0.948 µM.

As to `CC1(S(=O)(=O)O)CC(=O)c2ccccc2C1=O` (configuration not stated), the AC35 was 20.1 µM.

Take `CC1=Nc2cc(C(=O)NCC3CCCO3)ccc2Sc2ccc(C)cc21` (configuration not stated): the AC35 is 13.5 µM.

For the molecule `O=C(NCCOc1ccccc1F)c1cc([N+](=O)[O-])ccc1N1CCOCC1`, the AC35 was 13.6 µM.

On to `CCC(COC(=O)c1cc(OC)c(OC)c(OC)c1)(c1ccccc1)N(C)C` (configuration not stated), for which the AC35 is 18.4 µM.

As for `CCOc1ccc(-c2cc(C(=O)N3CCN(c4ccccn4)CC3)c3ccccc3n2)cc1`, the AC35 is 10.9 µM.

`C[C@H]1CN([C@@H](C)CO)S(=O)(=O)c2ccc(-c3ccc(C#N)cc3)cc2O[C@@H]1CN(C)Cc1ccccn1`: the AC35 was 5.26 µM.

As for `COc1ccc(CCNc2c3ccccc3nc3ccccc23)cc1OC`, the AC35 is 6.93 µM.

Take `COc1ccc(-c2cc(NC=O)c3ncc(-c4ccc(OC)c(OC)c4)n3c2)cc1`: the AC35 is 6.95 µM.

`CCN(CC)c1ccc(/C=N/NC(=O)c2ccco2)c(O)c1`: the AC35 is 1.13 µM.

`CCCC(=O)NC(NC(=S)Nc1ccc(N=Nc2ccccc2)cc1)C(Cl)(Cl)Cl` (configuration not stated): the AC35 was 5.73 µM.

`COc1cccc(-c2cc3nc(-c4ccccc4)cc(=O)n3[nH]2)c1`: the AC35 is 7.55 µM.

As for `CCCn1c(CN2CCN(C(=O)OCC)CC2)nc2cc(NC(=O)CC)ccc21`, the AC35 is 18.9 µM.

Regarding `COc1ccc(NC(=O)c2nc(C)c(C3(C)CC(c4cccnc4)=NO3)s2)cc1` (configuration not stated), the AC35 is 13.9 µM.

On to `C[C@H]1CN([C@@H](C)CO)C(=O)Cc2cc(NC(=O)Nc3ccc(C(F)(F)F)cc3)ccc2O[C@H]1CN(C)S(=O)(=O)c1ccccc1`, for which the AC35 is 10.1 µM.

Take `CCCCN1C(=O)CC(C(=O)OCC)=C1C`: the AC35 was 22 µM.

For the molecule `C[C@H]1CN([C@@H](C)CO)S(=O)(=O)c2ccc(C#CC3CCCCC3)cc2O[C@H]1CN(C)Cc1cccnc1`, the AC35 is 22.2 µM.

On to `CCOc1ccc(C)cc1S(=O)(=O)n1cnc2ccccc21`, for which the AC35 was 11.7 µM.

Take `Cc1ccc(S(=O)(=O)NCCCNS(=O)(=O)c2ccc(C)cc2)cc1`: the AC35 was 20 µM.

For `CC(=O)Nc1sc2c(c1-c1nc3ccccc3s1)CN(C(C)C)CC2`, the AC35 is 3.4 µM.

Regarding `COCCCN=C1NN=C(c2cc(C)n(Cc3ccco3)c2C)CS1`, the AC35 is 6.71 µM.

Take `COCCNC(=O)c1cc(-c2ccc(-c3ccccc3)cc2)nc2ccccc12`: the AC35 was 17.9 µM.

As to `COc1ccc(C2c3ccc4ccccc4c3Oc3ncn(CCCO)c(=N)c32)cc1OC` (configuration not stated), the AC35 is 18.7 µM.

As for `COC(C(=O)C(O)C(C)O)C1Cc2cc3cc(OC4CC(OC5CC(O)C(O)C(C)O5)C(O)C(C)O4)c(C)c(O)c3c(O)c2C(=O)C1OC1CC(OC2CC(OC3CC(O)C(OC)C(C)O3)C(O)C(C)O2)C(O)C(C)O1` (configuration not stated), the AC35 was 0.148 µM.

In the case of `N#CC1=C(N)Oc2c(ccc3cccnc23)C1c1ccccc1` (configuration not stated), the AC35 was 6.64 µM.

With `Nc1[nH]c(C(=O)c2ccccc2)c(-c2ccccc2C(F)(F)F)c1C(=O)NCCc1c[nH]c2ccccc12`, the AC35 is 22.4 µM.

With `COc1ccc(-c2csc(NC(=S)NC(=O)/C=C/c3ccco3)n2)cc1OC`, the AC35 was 14.3 µM.

Take `Cn1cccc1/C=C1\SC(=Nc2cccc(O)c2)NC1=O`: the AC35 is 14.2 µM.

As for `COc1ccc2cc(CN(CC3CCCO3)C(=S)Nc3ccccc3)c(=O)[nH]c2c1` (configuration not stated), the AC35 was 13 µM.

As to `CCCC#Cc1ccc([C@H]2[C@@H](CO)N3CCCCN(S(=O)(=O)c4ccccc4C)C[C@H]23)cc1`, the AC35 is 8.96 µM.

For `COc1ccc(NC(=O)c2nc(C)c(C3(C)CC(c4ccccc4)=NO3)s2)cc1` (configuration not stated), the AC35 was 17.1 µM.

Regarding `CC(=O)Nc1ccc2cc3ccc(NC(C)=O)cc3nc2c1`, the AC35 was 11.6 µM.
